Peptide text beside a SMILES is read from it.
Test system: Botrytis cinerea (B05.10)
Test: Resazurin antifungal assay of 180 alpha-factor peptide variants towards Botrytis (Example 2)
Assay type: cell-based
Details: % inhibition of fungal growth, Botrytis conidia, resazurin; for Inhibition at 50 μM: peptide 50 μM; for Inhibition at 100 μM: peptide 100 μM
Procedure, shortened: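 B. cinerea B05.10 conidia (5000/well) were exposed to peptides at 100, 50, 20, 15 and 10 μM final for 24 h at 20° C. Resazurin was then added and fluorescence read at 570/620 nm. Percent growth inhibition was calculated against conidia-only wells, with four technical replicates.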

CSCC[C@H](NC(=O)[C@@H]1CCCN1C(=O)[C@H](CCC(N)=O)NC(=O)CNC(=O)[C@@H]1CCCN1C(=O)[C@H](Cc1c[nH]cn1)NC(=O)[C@H](CC(C)C)NC(=O)[C@H](CCC(N)=O)NC(=O)[C@@H](NC(=O)[C@H](CC(C)C)NC(=O)[C@H](Cc1c[nH]cn1)NC(=O)[C@@H](N)CCCCN)C(C)C)C(=O)N[C@@H](Cc1ccc(O)cc1)C(=O)O [compound 168] (H-KHLVQLHPGQPMY-OH; N-terminus and C-terminus assumed)
Inhibition at 50 μM: <90%
Inhibition at 100 μM: <90%

CC[C@H](C)[C@H](NC(=O)[C@@H](NC(=O)[C@H](Cc1c[nH]cn1)NC(=O)[C@@H]1CCCN1)[C@@H](C)O)C(=O)N[C@@H](CCC(N)=O)C(=O)N[C@@H](CC(C)C)C(=O)N[C@@H](Cc1c[nH]c2ccccc12)C(=O)N[C@@H](CCCCN)C(=O)NCC(=O)N[C@@H](CCC(N)=O)C(=O)N1CCC[C@H]1C(=O)N[C@@H](CCSC)C(=O)N[C@@H](Cc1ccc(O)cc1)C(=O)O [compound 169] (H-PHTIQLWKGQPMY-OH; N-terminus and C-terminus assumed)
Inhibition at 50 μM: <90%
Inhibition at 100 μM: <90%

CSCC[C@H](NC(=O)[C@H](Cc1c[nH]cn1)NC(=O)[C@@H](N)Cc1c[nH]c2ccccc12)C(=O)N[C@@H](CC(C)C)C(=O)N[C@H](C(=O)N[C@@H](Cc1ccccc1)C(=O)N[C@@H](CCCCN)C(=O)N1CCC[C@H]1C(=O)NCC(=O)N[C@@H](CCC(N)=O)C(=O)N1CCC[C@H]1C(=O)N[C@@H](CCSC)C(=O)N[C@@H](Cc1ccc(O)cc1)C(=O)O)[C@@H](C)O [compound 170] (H-WHMLTFKPGQPMY-OH; N-terminus and C-terminus assumed)
Inhibition at 50 μM: <90%
Inhibition at 100 μM: <90%

CSCC[C@H](NC(=O)[C@@H]1CCCN1C(=O)[C@H](CCC(=O)O)NC(=O)CNC(=O)[C@@H]1CCCN1C(=O)[C@H](CCCCN)NC(=O)[C@H](Cc1ccccc1)NC(=O)[C@H](CCC(N)=O)NC(=O)CNC(=O)[C@H](CC(C)C)NC(=O)[C@H](Cc1c[nH]cn1)NC(=O)[C@@H](N)Cc1c[nH]c2ccccc12)C(=O)N[C@@H](Cc1ccc(O)cc1)C(=O)O [compound 171] (H-WHLGQFKPGEPMY-OH; N-terminus and C-terminus assumed)
Inhibition at 50 μM: <90%
Inhibition at 100 μM: <90%

CSCC[C@H](NC(=O)[C@@H]1CCCN1C(=O)[C@H](CCSC)NC(=O)CNC(=O)[C@H](CO)NC(=O)[C@H](CCCCN)NC(=O)[C@H](CC(C)C)NC(=O)[C@H](C)NC(=O)CNC(=O)[C@H](Cc1c[nH]c2ccccc12)NC(=O)[C@H](CO)NC(=O)[C@@H](N)Cc1c[nH]c2ccccc12)C(=O)N[C@@H](Cc1ccc(O)cc1)C(=O)O [compound 172] (H-WSWGALKSGMPMY-OH; N-terminus and C-terminus assumed)
Inhibition at 50 μM: <90%
Inhibition at 100 μM: <90%

CSCC[C@H](NC(=O)[C@@H]1CCCN1C(=O)[C@H](CCC(N)=O)NC(=O)CNC(=O)[C@H](CC(N)=O)NC(=O)[C@H](CCCCN)NC(=O)[C@H](CC(C)C)NC(=O)[C@H](CCC(N)=O)NC(=O)[C@@H](NC(=O)[C@H](Cc1c[nH]c2ccccc12)NC(=O)[C@H](Cc1c[nH]cn1)NC(=O)[C@@H]1CCCN1)C(C)C)C(=O)N[C@@H](Cc1ccc(O)cc1)C(=O)O [compound 173] (H-PHWVQLKNGQPMY-OH; N-terminus and C-terminus assumed)
Inhibition at 50 μM: <90%
Inhibition at 100 μM: <90%

CSCC[C@H](NC(=O)[C@@H]1CCCN1C(=O)[C@H](CCC(N)=O)NC(=O)CNC(=O)[C@@H]1CCCN1C(=O)[C@H](Cc1c[nH]cn1)NC(=O)[C@H](CC(C)C)NC(=O)[C@H](CCC(N)=O)NC(=O)[C@@H](NC(=O)[C@H](CO)NC(=O)[C@H](Cc1c[nH]cn1)NC(=O)[C@@H](N)Cc1c[nH]c2ccccc12)C(C)C)C(=O)N[C@@H](Cc1ccc(O)cc1)C(=O)O [compound 174] (H-WHSVQLHPGQPMY-OH; N-terminus and C-terminus assumed)
Inhibition at 50 μM: <90%
Inhibition at 100 μM: <90%

CC[C@H](C)[C@H](NC(=O)[C@H](Cc1c[nH]c2ccccc12)NC(=O)[C@H](CCCCN)NC(=O)[C@@H](N)CCCCN)C(=O)N[C@@H](CCC(N)=O)C(=O)N[C@@H](CC(C)C)C(=O)N[C@@H](CCCCN)C(=O)N1CCC[C@H]1C(=O)NCC(=O)N[C@@H](CCC(=O)O)C(=O)N1CCC[C@H]1C(=O)N[C@@H](CCSC)C(=O)N[C@@H](Cc1ccc(O)cc1)C(=O)O [compound 175] (H-KKWIQLKPGEPMY-OH; N-terminus and C-terminus assumed)
Inhibition at 50 μM: <90%
Inhibition at 100 μM: <90%

CSCC[C@H](NC(=O)[C@@H]1CCCN1C(=O)[C@H](CO)NC(=O)CNC(=O)[C@H](CCCNC(=N)N)NC(=O)[C@H](CCCCN)NC(=O)[C@H](CC(C)C)NC(=O)[C@H](CC(N)=O)NC(=O)[C@@H](NC(=O)[C@H](CC(=O)O)NC(=O)[C@H](Cc1c[nH]cn1)NC(=O)[C@@H](N)Cc1c[nH]c2ccccc12)C(C)C)C(=O)N[C@@H](Cc1ccc(O)cc1)C(=O)O [compound 176] (H-WHDVNLKRGSPMY-OH; N-terminus and C-terminus assumed)
Inhibition at 50 μM: <90%
Inhibition at 100 μM: <90%

CSCC[C@H](NC(=O)[C@@H]1CCCN1C(=O)[C@H](CCC(N)=O)NC(=O)CNC(=O)[C@@H]1CCCN1C(=O)[C@H](CCCCN)NC(=O)[C@H](Cc1ccccc1)NC(=O)[C@H](CCC(=O)O)NC(=O)[C@H](CC(C)C)NC(=O)[C@@H](NC(=O)[C@H](Cc1c[nH]cn1)NC(=O)[C@@H](N)CCCCN)[C@@H](C)O)C(=O)N[C@@H](Cc1ccc(O)cc1)C(=O)O [compound 177] (H-KHTLEFKPGQPMY-OH; N-terminus and C-terminus assumed)
Inhibition at 50 μM: <90%
Inhibition at 100 μM: <90%

CSCC[C@H](NC(=O)[C@@H]1CCCN1C(=O)[C@H](CCC(N)=O)NC(=O)CNC(=O)[C@@H]1CCCN1C(=O)[C@H](Cc1c[nH]c2ccccc12)NC(=O)[C@H](Cc1ccccc1)NC(=O)[C@H](CCC(N)=O)NC(=O)[C@@H](NC(=O)[C@H](CO)NC(=O)[C@H](Cc1c[nH]cn1)NC(=O)[C@@H](N)Cc1c[nH]c2ccccc12)C(C)C)C(=O)N[C@@H](Cc1ccc(O)cc1)C(=O)O [compound 178] (H-WHSVQFWPGQPMY-OH; N-terminus and C-terminus assumed)
Inhibition at 50 μM: <90%
Inhibition at 100 μM: 97.30%

CSCC[C@H](NC(=O)[C@@H]1CCCN1C(=O)[C@H](CCC(N)=O)NC(=O)CNC(=O)[C@@H]1CCCN1C(=O)[C@H](CCCCN)NC(=O)[C@H](CC(C)C)NC(=O)[C@H](CCC(=O)O)NC(=O)[C@H](CC(C)C)NC(=O)[C@H](Cc1ccccc1)NC(=O)[C@H](Cc1c[nH]cn1)NC(=O)[C@@H](N)CCCCN)C(=O)N[C@@H](Cc1ccc(O)cc1)C(=O)O [compound 179] (H-KHFLELKPGQPMY-OH; N-terminus and C-terminus assumed)
Inhibition at 50 μM: <90%
Inhibition at 100 μM: <90%

CC[C@H](C)[C@H](NC(=O)[C@H](CCCCN)NC(=O)[C@H](CC(C)C)NC(=O)[C@H](C)NC(=O)[C@H](CC(C)C)NC(=O)[C@H](CC(=O)O)NC(=O)[C@H](Cc1c[nH]cn1)NC(=O)[C@@H](N)CCCCN)C(=O)NCC(=O)N[C@@H](CCC(N)=O)C(=O)N1CCC[C@H]1C(=O)N[C@@H](CCSC)C(=O)N[C@@H](Cc1ccc(O)cc1)C(=O)O [compound 180] (H-KHDLALKIGQPMY-OH; N-terminus and C-terminus assumed)
Inhibition at 50 μM: <90%
Inhibition at 100 μM: <90%
